Test results: PubChem BioAssay (NCI)
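96-well plates; 48 h exposure; 5 concentrations. Endpoints by linear interpolation between flanking doses. Not reached: highest tested concentration assigned. GI50 marks 50% less growth. TGI marks complete inhibition of growth.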

Experiments:
Experiment in all cases: DTP human tumour cell line panel, 48 h
[1] = system: SW-620 colon
[2] = system: MOLT-4 leukemia
[3] = system: NCI-H226 lung
[4] = system: HCT-116 colon
[5] = system: EKVX NSCLC
[6] = system: K-562 leukemia
[7] = system: RXF 393 renal
[8] = system: HCC-2998 colon
[9] = system: SK-OV-3 ovarian
[10] = system: SNB-19 CNS

Structure (SMILES)	TGI [1] [µM]	TGI [2] [µM]	TGI [3] [µM]	TGI [4] [µM]	TGI [5] [µM]	TGI [6] [µM]	TGI [7] [µM]	TGI [8] [µM]	TGI [9] [µM]	TGI [10] [µM]	GI50 [1] [µM]	GI50 [2] [µM]	GI50 [3] [µM]	GI50 [4] [µM]	GI50 [5] [µM]	GI50 [6] [µM]	GI50 [7] [µM]	GI50 [8] [µM]	GI50 [9] [µM]	GI50 [10] [µM]
C[C@@H]1C[C@H]2CC[C@H](O2)[C@H](C)C(=O)O[C@@H](C)C[C@@H]2CC[C@@H](O2)[C@@H](C)C(=O)O[C@H](C)C[C@H]2CC[C@H](O2)[C@H](C)C(=O)O[C@@H](C)C[C@@H]2CC[C@@H](O2)[C@@H](C)C(=O)O1	> 100	22	> 93.5	> 100	> 100	> 33.8	> 100	> 27.8	0.567	> 100										
N#C/C(=C\c1ccc(O)c(O)c1)C(N)=S	> 100	> 100	> 100	> 100	> 100	> 100	> 89.7	> 100	> 100	> 100										
CCCCCCCCCCCCCCCCN1CC2CCCCC2C1 (centres undefined)	15	4.28	16.8	10.8	21.8	11.2	6.78	5.44	29.7	27.7	3.87	1.92	4.2	2.97	9.19	3.54	2.3	2.17	12.5	7
O=[N+]([O-])C1C2C=CC(C2)[C@H]1c1ccco1 (some centres undefined)	> 100	> 100	> 100	> 100	> 100	> 100	> 100	> 100	> 100	> 100										
CCOC(=O)c1cc(NS(=O)(=O)c2ccccc2)cc(C(=O)OCC)c1	> 100	> 100	> 100	> 100	> 100	> 100	> 100	> 100	> 100	> 100	> 100	> 100	> 100	> 100	> 100	> 100	> 100	> 100	> 100	> 100
COc1ccc(-c2csc(N(C(=O)N3CCN(c4cc5c(cc4F)c(=O)c(C(=O)O)cn5C4CC4)CC3)c3ccccc3)n2)cc1	> 100	> 100	21.7	> 63.7	> 100	> 100	14.8	> 100	7.83	> 100	4.37	3.78	3.18	0.897	3.3	3.1	0.789	4.13	2.49	1.11
O=C(N/C(=C\c1ccc2c(c1)OCO2)c1nc2ccccc2[nH]1)c1ccccc1	> 100	56.9	77.1	> 89	> 100	> 79.6	81.5	> 87.3	> 100	> 100										
COc1cc(C(=O)C/C(CCCC(=O)Nc2ccccc2[N+](=O)[O-])=N/NC(=O)c2cc3ccccc3cc2O)ccc1O	> 100	77	> 100	> 100	> 84.7	> 100	> 100	> 76.2	95.7	> 100										
CN(C)CCNc1c2c(c(NCCN(C)C)c3[nH]ccc13)C(=O)c1ccccc1C2=O	2.97		15.8		2.65		3.63	3.28	17.7	12.1	0.385	0.199	5.03	0.281	0.903	0.654	1.5	0.393	5.57	0.93
COc1ccc(-c2nn3c(-c4cc(F)c(Cl)cc4Cl)nnc3s2)cc1	> 100	80.7	> 100	52.9	> 100	44.7	97.2	48.7	> 100	> 100	24.6	26.5	47.9	20.8	34.1	5.13	28.7	20.7	21.4	39.4
COC(=O)[C@@]1(C)CC[C@]2(C)CC[C@]3(C)C4=CC=C5C(=CC(=O)C(O)=C5C)[C@]4(C)[C@@H](O)C[C@@]3(C)[C@@H]2C1	20.2	20.1	24.9	14.3	25.2	20.9	22.9	25.2	42.2	23.8	9.27	3.18	13.9	3.67	12.9	4.25	11.3	13	19.1	12.4
NCCn1c(=O)[nH]c(=O)[nH]c1=S	> 100	> 100	> 100	> 100	> 100	> 100	> 100	> 100	> 100	> 100	> 100	> 100	> 100	> 100	> 100	54.1	> 100	> 100	> 100	> 100
N#Cc1c(N2CCCC2)[nH]c(=O)c(C(c2c(Cl)cccc2Cl)c2c(O)c(C#N)c(N3CCCC3)[nH]c2=O)c1O	18.4	> 100	24.4	40	17.1	> 100	15.4	25.7	21	18.2	3.91	> 100	10.9	14.7	0.0367	27.4	2.69	12.1	0.0847	4.24
O=c1cc(-c2ccccc2)[nH]c2ccccc12	> 100	> 100	> 100	> 100	> 100	> 100	9.68		> 92.1	> 100	0.379	0.703	7.4	0.547	8.95		0.996	0.639	1.48	0.881
COc1cc2c(c(OC)c1)C1c3ccccc3NC(=O)N1CC2 (centres undefined)	> 100	> 100	> 100	> 100	> 100	> 100	5.6	> 100	> 100	> 100	4.68	3.99	7.24	3.69	4.79	2.98	2.38	3.31	3.67	7
O=C(NCCO)Nc1ccc(-c2nc(N3CCOCC3)c3cccn3n2)cc1	> 100	> 49.2	6.33	> 100	8.47	> 100	1.39	> 100	0.291	> 100	1.65	0.217	0.13	1.85	0.183	2.8	0.0686	0.488	0.0602	2.14
CN1CCC(n2cnc(-c3ccc(F)cc3)c2-c2ccnc(NCCO)n2)CC1	> 25	> 25	> 25	> 25	> 25	> 25	> 25	> 25	> 25	> 25	15.8	> 25	> 25	14.5	> 23.2	18.3	> 25	> 25	> 25	> 25
Nc1ccccc1C#C/C=C\C#Cc1cccs1	33	84.1	16.9	46.5	35.1	> 100	> 83.9	19.3	> 52.3	> 100	14.4	2.49	2.22	9.55	12.7	3.53	33.8	4.17	26.5	43.5
Cc1c(C(=O)C/C(=N\O)C(=O)Nc2cc(Cl)c(Cl)cc2Cl)[n+](=O)c2ccccc2n1[O-]	9.74	32.8	37.5	17	43.6	> 100	68.8	23.5	> 100	> 100										
COc1cccc(-n2ncc3c(N/N=C/c4ccc(C(=O)NCCN(C)C)cc4)ncnc32)c1	9.06	11	> 22.2	6.21	8.57	6.65	3.53	8.58	4.68	9.75	4.73	4.48	9.36	2.76	4.31	0.128	0.496	4.66	1.53	5.07
COC(=O)[C@H](C[C@H](Cc1ccccc1)NC(=O)c1csc([C@@H](C[C@H](C(C)C)N(C)C(=O)[C@@H](NC(=O)[C@H]2CCCCN2C)C(C)C)OC(C)=O)n1)NC(=O)OCc1ccccc1	> 9	> 9	0.0799		> 9	> 3.46	> 9	> 5.64	> 9	> 9	< 0.0009	< 0.0009	0.00144	< 0.0009	0.00843	< 0.0009	< 0.0009	< 0.0009	0.00199	< 0.0009
O=C1/C(=C\c2c[nH]c3ccccc23)c2ccccc2N1c1c(Cl)cccc1Cl	3.56	5.13	3.65	2.56	4.91	5.4	3.92	3.12	5.27	13.5	1.9	1.5	1.7	1.3	1.63	2.28	2.02	1.7	2.13	2.77
CC[C@@H](C(=O)O)C1CC[C@H](C)C([C@@H](C)[C@H](O)[C@H](C)C(=O)[C@H](CC)C2O[C@]3(C=C[C@@H](O)[C@]4(CC[C@@](C)(C5CC[C@](O)(CC)[C@H](C)O5)O4)O3)[C@H](C)C[C@@H]2C)O1 (some centres undefined)	8.93	5.92	10.8	16.6	22.5	15.6	3.76	7.52	31.8	3.65	1.33	1.47	1.19	0.369	0.523	0.306	0.289	0.13	3.44	0.323
OC(c1cc(-c2ccccc2)nc2ccc(Cl)cc12)C1CCCCN1 (centres undefined)	3.69	6.2	4.64	3.21	6.27	7.01	3.84	3.34	14.4	4.2	1.94	2.51	2.19	1.76	2.36	2.54	2.01	1.83	3.85	1.99
COc1cc(C2CC(c3ccc4c(c3)OCO4)=NN2C=O)cc(OC)c1OC (centres undefined)	> 100	> 100	> 100	> 100	> 100	> 100	22.2	> 100	> 100	> 100	1.21	4.34	8.06	1.52	3.74	0.621	4.05	4.44	2.25	6.3
COc1ccc(C2=Nc3ccccc3NC(=O)C2)cc1	45	> 100	> 100	42.3	> 100	> 100	46.2	> 100	38.2	> 100										
